This note sets out measurements from ChEMBL document CHEMBL1201862, “PubChem BioAssay data set” (2004).

Some test systems named below: A498; BT-549; CCRF-CEM; HCT-15; HL-60; Hs-578T; MCF7; MDA-MB-231; MDA-N; MOLT-4; NCI-H460; NCI/ADR-RES; OVCAR-8; PC-3; SF-539; SK-MEL-28; SK-OV-3; SNB-75; T47D; SR.
Common to all, as to assay: growth of human tumour cells (NCI), 48 h

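Method: 48-hour compound exposure of cells in 96-well plates, five concentrations, linear interpolation of endpoints. At the GI50, growth is halved.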 Calls of active or inactive are those of the source. Cut-off read from the data, not from the text of the source: active = GI50 up to about 1.1 µM and inactive = higher.

Turning to `NC(=S)SCCC(=O)O`, the GI50 in the experiment on A498 is > 100 µM (inactive); in the experiment with BT-549 it was > 100 µM (inactive); with CCRF-CEM, > 100 µM (inactive); with HCT-15, greater than 100 µM; with HL-60 it was > 100 µM (inactive); in the experiment with Hs-578T, > 100 µM (inactive). For the same molecule, the GI50 with MCF7, in the experiment on MDA-MB-231, in the experiment with MDA-N, with MOLT-4, in the experiment with NCI-H460 and in the experiment on NCI/ADR-RES was > 100 µM (inactive) throughout. In addition, the GI50 in the experiment on OVCAR-8, with PC-3, in the experiment with SF-539, in the experiment with SK-MEL-28, in the experiment with SK-OV-3 and in the experiment with SNB-75 was > 100 µM (inactive) throughout. The GI50 with T47D is 43.2 µM (inactive).
Turning to `S=C(N1CCN(c2ccc(Cl)c(Cl)c2)CC1)N1CCN(c2ccc(Cl)c(Cl)c2)CC1`, the GI50 in the experiment with BT-549 is 16.2 µM (inactive); in the experiment with CCRF-CEM, 3.42 µM (inactive); in the experiment on HCT-15, 15.4 µM; in the experiment on Hs-578T, 6.52 µM (inactive); in the experiment on MCF7 it was 11.7 µM (inactive); in the experiment with MDA-MB-231 it was 9.08 µM (inactive). The GI50 is 11.6 µM (inactive) in the experiment with MDA-N; 6.18 µM (inactive) in the experiment on MOLT-4; 16.3 µM (inactive) with NCI/ADR-RES; 14.8 µM (inactive) with OVCAR-8; 12.7 µM (inactive) in the experiment with PC-3; 14.7 µM (inactive) in the experiment with SK-MEL-28. Further, the figures for the GI50 in the experiment on SK-OV-3, in the experiment on SR and in the experiment with T47D were 12.5 µM (inactive), 1.36 µM (inactive) and 7.94 µM (inactive), respectively.
Consider `CC(C)CC1N=C(OCc2ccccc2)OC1=O` (stereo unspecified), for which the GI50 is > 100 µM (inactive) in the experiment on A498; > 100 µM (inactive) in the experiment on BT-549; > 100 µM (inactive) with CCRF-CEM; greater than 100 µM with HCT-15; > 100 µM (inactive) in the experiment with Hs-578T; > 100 µM (inactive) in the experiment with MCF7. For the same molecule, the GI50 with MDA-MB-231, in the experiment on MDA-N, with MOLT-4, in the experiment on NCI-H460, in the experiment on NCI/ADR-RES and in the experiment with OVCAR-8 was > 100 µM (inactive) in each case. Further, the GI50 with PC-3, in the experiment on SF-539, with SK-MEL-28, with SK-OV-3, with SNB-75 and in the experiment with T47D was > 100 µM (inactive) each time.
For `Cc1ccc(S(=O)(=O)NC(CN)C(=O)O)cc1` (stereo unspecified), the GI50 in the experiment on A498 is > 100 µM (inactive); in the experiment with BT-549, > 100 µM (inactive); with HCT-15, greater than 100 µM; in the experiment on Hs-578T, > 100 µM (inactive); in the experiment with MCF7, > 100 µM (inactive); with MDA-MB-231, > 100 µM (inactive). Besides, the GI50 with MDA-N is > 100 µM (inactive); in the experiment with MOLT-4 it was 36.8 µM (inactive); in the experiment on NCI-H460, > 100 µM (inactive); in the experiment on NCI/ADR-RES, > 100 µM (inactive); in the experiment with OVCAR-8, > 100 µM (inactive); in the experiment on PC-3, > 100 µM (inactive). Besides, the GI50 in the experiment on SF-539, with SK-MEL-28, in the experiment with SK-OV-3, in the experiment with SNB-75 and in the experiment on T47D was > 100 µM (inactive) in each case.
As for `Cn1cc(C=C(C#N)C#N)c(=O)n(C)c1=O`, the GI50 is > 100 µM (inactive) in the experiment on A498; > 100 µM (inactive) in the experiment on BT-549; greater than 100 µM in the experiment with HCT-15; > 100 µM (inactive) in the experiment on Hs-578T; > 100 µM (inactive) in the experiment on MCF7; > 100 µM (inactive) in the experiment on MDA-MB-231. Moreover, the GI50 in the experiment with MDA-N was > 100 µM (inactive); in the experiment on MOLT-4, 0.809 µM (active); in the experiment with NCI-H460, > 100 µM (inactive); in the experiment with NCI/ADR-RES it was > 100 µM (inactive); in the experiment with OVCAR-8, > 100 µM (inactive); in the experiment on PC-3, > 100 µM (inactive). Also, the GI50 with SF-539, in the experiment on SK-MEL-28, with SK-OV-3, in the experiment with SNB-75 and in the experiment on T47D was > 100 µM (inactive) each time.
